Some results are limits rather than exact numbers.

The record followed here is patent US20240254118A1, “PRMT5 INHIBITORS AND USES THEREOF” (Gilead Sciences, Inc., priority 2022, published 2024).

The subject of test [1] is SDMA signal (PRMT5 inhibition) in HCT116 MTAP-deleted cells. In words: Symmetric di-methyl arginine image-based high content screen assay (SDMA assay), HCT116 MTAP-deleted. The class given is cell-based. Particulars: SDMA assay; for EC50: Homo sapiens, HCT-116, 72 h, 3 days of treatment, cell line not given, taken as HCT116 MTAP-deleted, read-out: EC50 (SDMA assay); for EC50 selectivity (SDMA assay): taken as HCT116 WT versus MTAP-deleted. How it is done: Symmetric di-methyl arginine image-based high content screen assay (SDMA assay) was performed in HCT116 WT and HCT116 MTAP-deleted cell lines to measure Symmetric Di-methyl Arginine (SDMA) signal reduction after selective PRMT5 inhibition in the MTAP-deleted cells.
Briefly, the same compound plates were generated as mentioned in the previous section of Cell viability assay on Day −1.
On Day 3, the cells were fixed by adding 45 μl of 8% neutralized formalin solution to each well using EL460 liquid dispenser 5 μl cassette and the cells were incubated for 30 minutes at room temperature. The formalin solution was washed off with […] phosphate buffered saline (dPBS), the 0.1% Triton X-100 solution in dPBS was used to permeabilize the cells for 15 minutes at room temperature. The triton solution was aspirated, 50 μl of Odyssey Blocking buffer+0.05% Tween20 was added and the plate was incubated at room temperature for 30 minutes.
The blocking solution was removed, a 20 μl of SDMA antibody (Cell Signaling Technology, Cat no. 13222) diluted 1:500 in Odyssey Blocking buffer+0.05% Tween20 was added and the plate was incubated at 4° C. overnight. Next day, the primary SDME antibody solution was washed from each well three times with 0.05% Tween20 in dPBS (PBST).
A 30 μl of the secondary antibody, a Goat anti-Rabbit Alexa Fluor Plus 488 (Invitrogen, Cat no. PIA32731) was diluted 1:500 in Odyssey Blocking buffer+0.05% Tween20 and the plate was incubated for 1.5 hours in dark at room temperature. The secondary antibody solution was removed, 30 μl of 5 mg/ml DAPI solution diluted 1:2000 in dPBS was added and the plate was incubated for 30 minutes in dark at room temperature. The DAPI solution was aspirated and the wells were washed six times with dPBS.
The SDMA signal and DAPI signal per cell were counted using a Cellomics CX7 LZR instrument reading under 488 and 405 nm laser, respectively. The SDMA signal was quantified by mean average intensity per cell from Alexa Fluor Plus 488 after the cell was defined with DAPI.

The subject of test [2] is HCT116 MTAP-deleted cells. In words: Cell viability assay (CellTiter-Glo, 7 days), HCT116 MTAP-deleted. Particulars: Homo sapiens, HCT-116, 168 h. (Cellular ATP, detected with luciferase, serves as a proxy for viable cell number.)

For the compound `CCOC(=O)N(C)N(Cc1ccc(C(F)(F)F)cn1)C(=O)c1ccc2nc(N)c3cnn(C)c3c2c1` [Example 38, ethyl N-[(4-amino-1-methyl-pyrazolo[4,3-c]quinoline-8-carbonyl)-[[5-(trifluoromethyl)-2-pyridyl]methyl]amino]-N-methyl-carbamate], in test [1], the EC50 is less than 1 nM and the “EC50 selectivity (SDMA assay)” value is on record as 12. This compound returned a CC50 in test [2] of less than 100 nM.
The matching figures for `CC(=O)N(C)N(Cc1ccc(C(F)(F)F)cc1F)C(=O)c1ccc2nc(N)c3cnn(C)c3c2c1` [Example 39, N′-acetyl-4-amino-N-[[2-fluoro-4-(trifluoromethyl)phenyl]methyl]-N′,1-dimethyl-pyrazolo[4,3-c]quinoline-8-carbohydrazide]: less than 1 nM, 25 and less than 100 nM.
On to `CC(=O)N(C)N(Cc1ccc(C(F)(F)F)cc1F)C(=O)c1cc2c(cc1F)nc(N)c1cnn(C)c12` [Example 40, N′-acetyl-4-amino-7-fluoro-N-[[2-fluoro-4-(trifluoromethyl)phenyl]methyl]-N′,1-dimethyl-pyrazolo[4,3-c]quinoline-8-carbohydrazide], for which, in test [1], the EC50 was less than 1 nM and the “EC50 selectivity (SDMA assay)” value was 8. The compound also gave a cytotoxic concentration (CC50) in test [2] of less than 100 nM.
With `CCC(=O)N(C)N(Cc1ccc(C(F)(F)F)cn1)C(=O)c1ccc2nc(N)c3cnn(C)c3c2c1` [Example 41, 4-amino-N′, 1-dimethyl-N′-propanoyl-N-[[5-(trifluoromethyl)-2-pyridyl]methyl]pyrazolo[4,3-c]quinoline-8-carbohydrazide], in test [1], the EC50 was less than 1 nM and the “EC50 selectivity (SDMA assay)” value came out at 46. This compound showed a CC50 in test [2] of less than 100 nM.
Turning to `CCC(=O)N(C)N(Cc1ccc(C(F)(F)F)cn1)C(=O)c1cc2c(cc1F)nc(N)c1cnn(C)c12` [Example 42, 4-amino-7-fluoro-N′, 1-dimethyl-N′-propanoyl-N-[[5-(trifluoromethyl)-2-pyridyl]methyl]pyrazolo[4,3-c]quinoline-8-carbohydrazide], in test [1], the EC50 was less than 1 nM and the “EC50 selectivity (SDMA assay)” value was 14. Besides, the 50% cytotoxic concentration (CC50) in test [2] was less than 100 nM.
In the case of `Cn1ncc2c(N)nc3ccc(C(=O)N(Cc4ccc(C(F)(F)F)cn4)N4CCC(C)(C)C4=O)cc3c21` [Example 43, 4-amino-N-(3,3-dimethyl-2-oxo-pyrrolidin-1-yl)-1-methyl-N-[[5-(trifluoromethyl)-2-pyridyl]methyl]pyrazolo[4,3-c]quinoline-8-carboxamide], in test [1], the 50% effective concentration (EC50) lay in the range of 1 to 5 nM and the “EC50 selectivity (SDMA assay)” value is on record as 226. Also, the CC50 in test [2] was less than 100 nM.
For the compound `Cn1ncc2c(N)nc3cc(F)c(C(=O)N(Cc4ccc(C(F)(F)F)cn4)N4CCC(C)(C)C4=O)cc3c21` [Example 44, 4-amino-N-(3,3-dimethyl-2-oxo-pyrrolidin-1-yl)-7-fluoro-1-methyl-N-[[5-(trifluoromethyl)-2-pyridyl]methyl]pyrazolo[4,3-c]quinoline-8-carboxamide], in test [1], the EC50 was in the range of 1 to 5 nM and the “EC50 selectivity (SDMA assay)” value stood at 187. This compound gave a CC50 in test [2] of less than 100 nM.
For `CCOC(=O)NN(Cc1ccc(C(F)(F)F)cn1)C(=O)c1ccc2nc(N)c3cnn(C)c3c2c1` [Example 45, ethyl N-[(4-amino-1-methyl-pyrazolo[4,3-c]quinoline-8-carbonyl)-[[5-(trifluoromethyl)-2-pyridyl]methyl]amino]carbamate] the same measures were less than 1 nM, 63 and less than 100 nM.
As to `CCOC(=O)NN(Cc1ccc(C(F)(F)F)cn1)C(=O)c1cc2c(cc1F)nc(N)c1cnn(C)c12` [Example 46, ethyl N-[(4-amino-7-fluoro-1-methyl-pyrazolo[4,3-c]quinoline-8-carbonyl)-[[5-(trifluoromethyl)-2-pyridyl]methyl]amino]carbamate], in test [1], the EC50 was less than 1 nM and the “EC50 selectivity (SDMA assay)” value was 6. The CC50 in test [2] is less than 100 nM.
As to `CC(=O)N(C)N(Cc1ccc(F)cc1F)C(=O)c1ccc2nc(N)c3cnn(C)c3c2c1` [Example 47, N′-acetyl-4-amino-N-[(2,4-difluorophenyl)methyl]-N′,1-dimethyl-pyrazolo[4,3-c]quinoline-8-carbohydrazide], in test [1], the EC50 is less than 1 nM and the “EC50 selectivity (SDMA assay)” value was 121. The CC50 in test [2] was less than 100 nM.
`CC(=O)N(C)N(Cc1ccc(F)c(F)c1F)C(=O)c1ccc2nc(N)c3cnn(C)c3c2c1` [Example 48, N′-acetyl-4-amino-N′,1-dimethyl-N-[(2,3,4-trifluorophenyl)methyl]pyrazolo[4,3-c]quinoline-8-carbohydrazide]: in test [1], the EC50 lay within 1 to 5 nM and the “EC50 selectivity (SDMA assay)” value is recorded as 326. The compound further displayed a CC50 in test [2] of less than 100 nM.
Take `CC(=O)N(C)N(Cc1cc(F)c(F)cc1F)C(=O)c1ccc2nc(N)c3cnn(C)c3c2c1` [Example 49, N′-acetyl-4-amino-N′,1-dimethyl-N-[(2,4,5-trifluorophenyl)methyl]pyrazolo[4,3-c]quinoline-8-carbohydrazide]: in test [1], the half-maximal effective concentration (EC50) was less than 1 nM and the “EC50 selectivity (SDMA assay)” value is reported as 163. The compound further yielded a CC50 in test [2] of less than 100 nM.
Turning to `Cn1ncc2c(N)nc3ccc(C(=O)N(Cc4ccc(C(F)(F)F)cc4F)N4CCOCC4=O)cc3c21` [Example 50, 4-amino-N-[[2-fluoro-4-(trifluoromethyl)phenyl]methyl]-1-methyl-N-(3-oxomorpholin-4-yl)pyrazolo[4,3-c]quinoline-8-carboxamide], in test [1], the EC50 was less than 1 nM and the “EC50 selectivity (SDMA assay)” value turned out to be 31. In test [2], this compound gave a 50% cytotoxic concentration (CC50) of less than 100 nM.
Consider `CN(C(=O)C1(C)CC1)N(Cc1ccc(C(F)(F)F)cn1)C(=O)c1ccc2nc(N)c3cnn(C)c3c2c1` [Example 51, 4-amino-N′,1-dimethyl-N′-(1-methylcyclopropanecarbonyl)-N-[[5-(trifluoromethyl)-2-pyridyl]methyl]pyrazolo[4,3-c]quinoline-8-carbohydrazide], for which, in test [1], the EC50 was 1 to 5 nM and the “EC50 selectivity (SDMA assay)” value came out at 260. In test [2], the CC50 is less than 100 nM.
For `CN(C(=O)C1(C(F)(F)F)CC1)N(Cc1ccc(C(F)(F)F)cn1)C(=O)c1ccc2nc(N)c3cnn(C)c3c2c1` [Example 52, 4-amino-N′, 1-dimethyl-N′-[1-(trifluoromethyl)cyclopropanecarbonyl]-N-[[5-(trifluoromethyl)-2-pyridyl]methyl]pyrazolo[4,3-c]quinoline-8-carbohydrazide] the same measures were 1 to 5 nM, 174 and 100 to 1000 nM.
The matching figures for `Cn1ncc2c(N)nc3cc(F)c(C(=O)N(Cc4ccccn4)N4CCCC4=O)cc3c21` [Example 53, 4-amino-7-fluoro-1-methyl-N-(2-oxopyrrolidin-1-yl)-N-(pyridin-2-ylmethyl)-1H-pyrazolo[4,3-c]quinoline-8-carboxamide]: 1 to 5 nM, 338 and 100 to 1000 nM.
The matching figures for `Cn1ncc2c(N)nc3ccc(C(=O)N(Cc4ccccn4)N4CCCC4=O)cc3c21` [Example 54, 4-amino-1-methyl-N-(2-oxopyrrolidin-1-yl)-N-(pyridin-2-ylmethyl)-1H-pyrazolo[4,3-c]quinoline-8-carboxamide]: greater than 5 nM, 339 and 100 to 1000 nM.

For orientation: EC50 means the concentration needed to bring the measured effect to its halfway point. The CC50 is the concentration at which the toxic effect on the cells reaches its halfway point. High values mean lower toxicity to the cells, low ones greater toxicity to the cells.
